The record followed here is ChEMBL document CHEMBL1132634, “Bound structures of novel P3-P1' beta-strand mimetic inhibitors of thrombin” (J Med Chem, 1999).

Assay [1] deals with T1, Prothrombin (Homo sapiens, UniProt P00734).
Description: Binding rate constant towards thrombin was determined
The target of assay [2] is T1, Prothrombin. Nature of the assay: Binding affinity towards thrombin was determined.

Compound `N=C(N)NCCC[C@H](NC(=O)[C@@H]1CCN2CC[C@@](N)(Cc3ccccc3)C(=O)N12)C(=O)C(=O)NCCc1ccccc1` gave a k on on Prothrombin [1] of 640000 M⁻¹ s⁻¹.

The Ki is a measure of affinity in units of concentration, obtained from inhibition or displacement. A high value points to a looser hold on the target. Consider `N=C(N)NCCC[C@H](NC(=O)[C@@H]1CC[C@@H]2CC[C@@](N)(Cc3ccccc3)C(=O)N21)C(=O)c1nc2ccccc2s1`, for which, at Prothrombin [2], the inhibition constant (Ki) stood at 0.65 nM.

On Prothrombin [1], `NCCCC[C@H](NC(=O)[C@@H]1CCN2CC[C@@](N)(Cc3ccccc3)C(=O)N12)C(=O)C(=O)NC1CCCCC1` had a k on of 1e+06 M⁻¹ s⁻¹.
